# Measurements from PMC9500974, “Ultrasonic-Assisted Synthesis of Benzofuran Appended Oxadiazole Molecules as Tyrosinase Inhibitors: Mechanistic Approach through Enzyme Inhibition, Molecular Docking, Chemoinformatics, ADMET and Drug-Likeness Studies” (International Journal of Molecular Sciences, 2022).
# Target: bacterial tyrosinase (indigenously isolated from Bacillus subtilis NCTC 10400)
# Test: Tyrosinase inhibition assay (dopachrome formation, OD 475 nm)
# Assay type: biochemical
# Conditions: L-tyrosine substrate, 25 °C, triplicates, mean ± SD
# Method: The target derivatives were evaluated against tyrosinase enzyme (indigenously isolated from Bacillus subtilis NCTC 10400) inhibition. […] Structure-activity relationship (SAR) studies indicate that overall substituent-related tyrosinase activity decreases in the following way: 2-flouro > 2-chloro > 3,4-dichloro > 4-fluoro > 3,4-dimethyl > 2-methoxy > phenyl > 2,4-dimethyl > 2,5-dimethoxy > diethyl.
# The bacterial tyrosinase enzyme isolation and preparation were fully described in our previously published paper and in other reported literature. A novel synthesized series of oxadiazole-based furan molecules were screened for anti-tyrosinase activity. Tyrosinase inhibition was investigated by modifying the reported methods of Kim. Briefly, phosphate buffer (0.05 M), L-tyrosine (765 µL; 2 mM) and tested compounds (35 µL) were incubated at ambient temperature for 10 min then bacterial tyrosinase (200 µL; about 48 U/mL) was added and the whole assay solution was allowed to stand at 25 °C for 2 min. The formation of dopachrome was monitored after incubation (2 min) by measuring the increase in optical density (OD) at λmax 475 nm. The stock solution for the entire synthesized series of oxadiazole-based furan moieties (1 mM) was prepared in DMSO (dimethyl sulfoxide). Five different dilutions of each oxadiazole-based furan moiety was prepared. Ascorbic acid (1 mM) was utilized for the standard tyrosinase inhibitor, and the values were expressed as IC50, the concentration of tested samples which caused the 50% inhibition. The percentage (%) of bacterial tyrosinase inhibitory activity was determine by utilizing the formula:(2) % Inhibition=A−BA×100
# Here, A represents control enzyme, i.e., without inhibitor, while B represented the test sample, i.e., inhibitor.
# The Prism software was used to analyze statistical data, while the results were measured in triplicates and depicted as mean ± SD.
row,IC50 [µM],Compound
1,11.5 ± 1,"O=C1O[C@H]([C@@H](O)CO)C(O)=C1O [Ascorbic acid, reference compound]"
2,11 ± 0.25,"O=C(CSc1nnc(-c2cc3cc(Br)ccc3o2)o1)Nc1ccccc1F [Compound 5a, 2-((5-(5-Bromobenzofuran-2-yl)-1,3,4-oxadiazol-2-yl)thio)-N-(2-fluorophenyl)acetamide]"
3,12.4,"O=C(CSc1nnc(-c2cc3cc(Br)ccc3o2)o1)Nc1ccccc1Cl [Compound 5b, 2-((5-(5-Bromobenzofuran-2-yl)-1,3,4-oxadiazol-2-yl)thio)-N-(2-chlorophenyl)acetamide]"
4,12.7,"O=C(CSc1nnc(-c2cc3cc(Br)ccc3o2)o1)Nc1ccc(Cl)c(Cl)c1 [Compound 5c, 2-((5-(5-Bromobenzofuran-2-yl)-1,3,4-oxadiazol-2-yl)thio)-N-(3,4-dichlorophenyl)acetamide]"
5,15.5,"O=C(CSc1nnc(-c2cc3cc(Br)ccc3o2)o1)Nc1ccc(F)cc1 [Compound 5d, 2-((5-(5-Bromobenzofuran-2-yl)-1,3,4-oxadiazol-2-yl)thio)-N-(4-fluorophenyl)acetamide]"
6,25 ± 0.75,"Cc1ccc(NC(=O)CSc2nnc(-c3cc4cc(Br)ccc4o3)o2)cc1C [Compound 5e, 2-((5-(5-Bromobenzofuran-2-yl)-1,3,4-oxadiazol-2-yl)thio)-N-(3,4-dimethylphenyl)acetamide]"
7,27 ± 1,"COc1ccccc1NC(=O)CSc1nnc(-c2cc3cc(Br)ccc3o2)o1 [Compound 5f, 2-((5-(5-Bromobenzofuran-2-yl)-1,3,4-oxadiazol-2-yl)thio)-N-(2-methoxyphenyl)acetamide]"
8,30 ± 1.5,"O=C(CSc1nnc(-c2cc3cc(Br)ccc3o2)o1)Nc1ccccc1 [Compound 5g, 2-((5-(5-Bromobenzofuran-2-yl)-1,3,4-oxadiazol-2-yl)thio)-N-phenylacetamide]"
9,36 ± 0.25,"Cc1ccc(NC(=O)CSc2nnc(-c3cc4cc(Br)ccc4o3)o2)c(C)c1 [Compound 5h, 2-((5-(5-Bromobenzofuran-2-yl)-1,3,4-oxadiazol-2-yl)thio)-N-(2,4-dimethylphenyl)acetamide]"
10,48 ± 0.96,"COc1ccc(OC)c(NC(=O)CSc2nnc(-c3cc4cc(Br)ccc4o3)o2)c1 [Compound 5i, 2-((5-(5-Bromobenzofuran-2-yl)-1,3,4-oxadiazol-2-yl)thio)-N-(2,5-dimethoxyphenyl)acetamide]"
11,49.5 ± 0.92,CCN(CC)C(=O)CSc1nnc(-c2cc3ccccc3o2)o1 [Compound 5j]
